The values that follow come from patent US20200222564A1, “Compound Amphiphilic Peptide Nanomicelle, Preparation and Use Thereof” (Tianjin University, priority 2019, published 2020).

This experiment deals with CNE-2Z cells. Put plainly: CCK-8 cytotoxicity in CNE-2Z cells. In kind it is cell-based. The conditions noted are these: 0-100 μg/mL, 24 h in the dark. How it is done: First of all, the designed concentration (0, 20, 40, 60, 80 and 100 μg/mL) solution of nanomicelle and rose bengal were prepared with 1640 medium. CNE-2Z cells were seeded into a 96-well player at a density of 2×10^4 cells per well. Each sample with a certain concentration was added to 5 wells. The cytotoxicity of the pure rose bengal and the nanomicelle solution at different concentrations was compared. After culturing for 48 hours, the cells were grown to 80%, and the medium containing different volumes of nanomicelle and rose bengal solution was added instead of the original medium according to the experimental group setting. After an additional incubation for 24 h at 37° C. in the dark, fresh medium (100 μL) together with CCK-8 (10 μL) was added followed by […] on a microplate reader at a wavelength of 450 nm. Cell viability was calculated according to the formula, with the maximum and minimum of OD values excluded:
Cell Viability=average of (OD−ODblk)/average of (OD0−ODblk)×100%

On to `O=C([O-])c1c(Cl)c(Cl)c(Cl)c(Cl)c1-c1c2cc(I)c(=O)c(I)c-2oc2c(I)c([O-])c(I)cc12.[Na+].[Na+]` [Rose Bengal], for which the “toxicity to CNE-2Z cells” value is listed as “less toxic”.
